From patent publication US20240398775A1, “PHARMACEUTICAL COMPOSITION FOR USE IN TREATING COGNITIVE DECLINE OR FOR USE IN TREATING OVERWEIGHT OR OBESITY” (University of the Ryukyus, priority 2021, published 2024) come the findings set out here.

Molecules are shown by their SMILES.

Test [1] deals with GluA1. Briefly: BS3 crosslinking assay / Western blot of GluA1 subunit. As to conditions: HFD-fed mice treated with PER, n=4; HFD gave 3-fold increase vs CD. It counts as in vivo, mouse. The procedure:
Crosslinking using the BS^3 procedure carried out here was carried out based on previously described methods (60). Hippocampal slices of 17 to 18 week old male C57BL/6J background mice (CD, HFD, and HFD with PER treatment) or 12 to 13 week old ob/ob mice (ob/ob, and ob/ob with PER treatment) were prepared as previously reported (56, 57). Hippocampal slices were prepared and collected, and then CA1, CA2, CA3, DG, and EC regions were separated from the hippocampal slices using a dissection knife. […] The total protein concentration of the lysate was measured using the Lowry method (61). […] BS^3 samples were analyzed by SDS-PAGE directly without purification, and surface and intracellular bands were measured in the same lane, thus no normalization was required and sample throughput was improved. […] Membranes were incubated with HRP-labeled anti-rabbit IgG (1:3,000, Cell Signaling Technology, Danvers, MA, USA) for 30 min and extensively washed again with TBS-T. After soaking the membrane in the chemiluminescence detection substrate Chemi-Lumi One (Nacalai Tesque, Tokyo, Japan) for 1 min, luminescence was detected using a LuminoGraph1 imaging system (Atto, Tokyo, Japan). The surface and intracellular bands of each lane were analyzed using a CS Analyzer (Atto, Tokyo, Japan). […]
Background: Immunoblotting shows a protein as a band on a membrane.

The test system of test [2] is HFD-fed mice. Description: Five-trial social memory assay. The following applies: PER treatment. It counts as in vivo, mouse. The procedure:
Five-trial social tests were performed as previously described (19). In summary, subject mice with CD, HFD, and HFD with PER treatment were housed individually starting 7 days before the study to establish territory dominance. On the day of the test, a female mouse was presented in the cages of subject male mice, which is a subject (FIG. 2G), and 5 min trials were performed 4 times in succession at 10 min intervals. In the fifth trial, a novel female mouse was presented (FIG. 2G) and the duration of the social investigation was recorded.

In test [3] the test system is NL-G-F mice. Briefly: Novel object recognition test in Alzheimer's dementia model mice. It counts as in vivo, mouse. As to conditions: NL-GF mice (n=5), perampanel 5 mg/kg body weight/day in CD diet from 8 to 13 weeks of age. On the procedure: Mice of CD, HFD, and HFD with PER treatment were handled daily for 5 minutes for 5 days prior to the start of the novel object recognition test. PER means the perampanel, which is an AMPA receptor antagonist. The mice were habituated to a 35 cm square, 25 cm high box for 10 minutes on the first day, and were given 2 identical objects (familiar objects) for 10 minutes on the second day. On the third day, one of the familiar objects was replaced with a novel object of different shape and color (FIG. 2F). […] The search time for each object was measured by offline analysis (47).
NL-GF mice begin to accumulate in the brain of Aβ from 8 weeks of age (Nat. Neurosci. 2014 17, 661-4). In this example, the AD model mouse (n=5) was fed a CD diet containing a perampanel at a dose of 5 mg/kg body weight/day from 8 to 13 weeks of age, and the mouse was subjected to a novel object recognition test. In the negative control (n=5), a normal CD diet without perampanel was taken.
NL-G-F(−/−) mice, a dementia model, were administered with memantine (mema), exercise, memantine and exercise, memantine and perampanel, and perampanel alone (5 mg/kg or 10 mg/kg), and subjected to behavioral experiments. As the behavior test, a novel object recognition test and a hippocampus function-dependent fear conditioning test were performed. […]

Test [4] concerns hippocampus and body weight of a person. Briefly: Perampanel in an obese person: brain MRI, body weight, BMI. The class given is in vivo, human. The following applies: for BMI: 26 w after surgery / 26 weeks of PER administration, before: 37.7. On the procedure: The effect of an AMPA receptor antagonist on the hippocampus and body weight of a person with a BMI value of 38 was investigated. A person had quadriplegia and respiratory disorders due to a large foramen magnum tumor. After the tumor extraction, anti-epileptic treatment was performed. As an anti-epileptic treatment, 2 mg/day (thereafter, the dose was changed to 4 mg/day) of perampanel was orally administered. The transition of the body weight and the Fugl-meyer assessment score of the lower limb was observed. In addition, the size of the hippocampus was evaluated from MRI of the brain of the at 26 weeks after surgery.

On to `N#Cc1ccccc1-c1cc(-c2ccccn2)cn(-c2ccccc2)c1=O` [PER, 3-(2-cyanophenyl)-5-(2-pyridyl)-1-phenyl-1,2-dihydropyridine-2-one], for which the “GluA1 in CA3 (BS3 crosslinking)” value in test [1] is “reduced GluA1 to basal levels”. For the same compound, the social memory entry in test [2] is “restored social memory disturbance”. Also, the novel object recognition entry in test [3] is reported as “significantly distinguish”. Also, the “body weight of the person” value in test [4] (obese person after administration) is given as “decreased smoothly”. Also, the BMI stood at 31 in test [4] (obese person) and 33.4 in test [4] (obese person, listed as AMPA receptor antagonist). Moreover, the “gray matter/TIV” value in test [4] (obese person, 26 w after surgery, oral perampanel 2 then 4 mg/day) came to 0.50 L/L. Moreover, the “size of the hippocampus (MRI)” value in test [4] (obese person, 26 weeks after surgery, PER administration) is given as “clearly increased”.
